Laboratory results as given in publication PMC10287695, “Non-covalent inhibitors of thioredoxin glutathione reductase with schistosomicidal activity in vivo” (Nature Communications, 2023).
Where “and” joins values, the source holds several entries; their conditions need not be identical. Identical values can stand only once. Like-named read-outs stand apart in the source and are kept apart here.

Molecular target: T1, TGR (Schistosoma mansoni, UniProt Q962Y6)
T1 construct: made in house
T1 sequence (Q962Y6 1-598): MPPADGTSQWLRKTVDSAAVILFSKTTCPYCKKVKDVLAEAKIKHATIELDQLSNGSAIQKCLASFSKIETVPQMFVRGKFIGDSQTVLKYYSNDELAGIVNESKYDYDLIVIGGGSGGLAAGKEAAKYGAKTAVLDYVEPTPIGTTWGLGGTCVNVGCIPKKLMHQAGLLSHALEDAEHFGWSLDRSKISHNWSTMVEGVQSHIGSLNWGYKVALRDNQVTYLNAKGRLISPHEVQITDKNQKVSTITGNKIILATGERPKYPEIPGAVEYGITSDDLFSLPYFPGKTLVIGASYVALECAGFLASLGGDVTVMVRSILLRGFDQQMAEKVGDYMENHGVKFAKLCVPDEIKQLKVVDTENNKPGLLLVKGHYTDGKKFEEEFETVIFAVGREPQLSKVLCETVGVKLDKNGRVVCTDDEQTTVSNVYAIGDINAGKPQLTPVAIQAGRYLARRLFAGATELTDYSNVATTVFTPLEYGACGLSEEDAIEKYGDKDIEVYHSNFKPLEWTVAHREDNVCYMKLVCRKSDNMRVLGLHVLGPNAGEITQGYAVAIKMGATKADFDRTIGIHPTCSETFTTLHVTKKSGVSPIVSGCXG
Format: biochemical, S. mansoni
Settings: for mode of inhibition (NADPH varied): steady state
Protocol: Master mixes with varying concentrations of NADPH were made, each with 2 nM TGR in reaction buffer. Inhibitor (2 µl) was added to a 96 well microplate in triplicate for each NADPH and inhibitor concentration, and 192 µl of the master buffer was added to each well. The reaction incubated for 15 min and 6 µl of 50 mM DTNB was added to each well. The kinetic rate was measured at A412 for 5 min.

[1] = inhibitor 3 µM, NADPH 3 (unit not given)
[2] = inhibitor 3 µM, NADPH 10 (unit not given)
[3] = inhibitor 3 µM, NADPH 30 (unit not given)
[4] = inhibitor 3 µM, NADPH 100 (unit not given)
[5] = inhibitor 3 µM, NADPH 300 (unit not given)
[6] = inhibitor 10 µM, NADPH 3 (unit not given)
[7] = inhibitor 10 µM, NADPH 10 (unit not given)
[8] = inhibitor 10 µM, NADPH 30 (unit not given)
[9] = inhibitor 10 µM, NADPH 100 (unit not given)
[10] = inhibitor 10 µM, NADPH 300 (unit not given)
[11] = inhibitor 30 µM, NADPH 3 (unit not given)
[12] = inhibitor 30 µM, NADPH 10 (unit not given)
[13] = inhibitor 30 µM, NADPH 30 (unit not given)
[14] = inhibitor 30 µM, NADPH 100 (unit not given)
[15] = inhibitor 30 µM, NADPH 300 (unit not given)
[16] = inhibitor 0.6 µM, NADPH 10 (unit not given)
[17] = inhibitor 0.6 µM, NADPH 30 (unit not given)
[18] = inhibitor 0.6 µM, NADPH 100 (unit not given)
[19] = inhibitor 0.6 µM, NADPH 300 (unit not given)
[20] = inhibitor 1 µM, NADPH 5 (unit not given)
[21] = inhibitor 1 µM, NADPH 10 (unit not given)
[22] = inhibitor 1 µM, NADPH 30 (unit not given)
[23] = inhibitor 1 µM, NADPH 100 (unit not given)
[24] = inhibitor 3 µM, NADPH 5 (unit not given)

Cc1oc(C2CCCCC2)nc1C(=O)N[C@@H]1C[C@@H]2C[C@H]([C@H]1C)C2(C)C [Compound 7] was tested, and the Vmax (3 µM fast inhibitor) was 0.037 ± 0.0031 ΔA412/min, the Vmax (10 µM fast inhibitor) was 0.023 ± 0.0006 ΔA412/min and the Vmax (30 µM fast inhibitor) was 0.005 ± 0.0004 ΔA412/min. The “Rate, single replicate” value [1] was 0.004865 and 0.004625 and 0.005262, the avg rate [1] was 0.004917 and the “Rate, single replicate” value [2] was 0.01865 and 0.01872 and 0.01883. The avg rate [2] was 0.01873, the “Rate, single replicate” value [3] was 0.02703 and 0.02752 and 0.02778 and the avg rate [3] was 0.02744. For the same compound, the “Rate, single replicate” value [4] was 0.03299 and 0.03283 and 0.0326, the avg rate [4] was 0.03281 and the “Rate, single replicate” value [5] was 0.02949 and 0.03026 and 0.03016. The avg rate [5] was 0.02997, the “Rate, single replicate” value [6] was 0.006166 and 0.006168 and 0.006055 and the avg rate [6] was 0.00613. For the same compound, the “Rate, single replicate” value [7] was 0.014 and 0.01379 and 0.01325, the avg rate [7] was 0.01368 and the “Rate, single replicate” value [8] was 0.01713 and 0.02008. For the same compound, the avg rate [8] was 0.01811, the “Rate, single replicate” value [9] was 0.02098 and 0.02124 and 0.02207 and the avg rate [9] was 0.02143. The “Rate, single replicate” value [10] was 0.009276 and 0.01989 and 0.01984, the avg rate [10] was 0.01634 and the “Rate, single replicate” value [11] was 0.002823 and 0.003641. For the same compound, the avg rate [11] was 0.003232, the “Rate, single replicate” value [12] was 0.004132 and 0.003931 and 0.003739 and the avg rate [12] was 0.003934. The “Rate, single replicate” value [13] was 0.004888 and 0.004427 and 0.004285, the avg rate [13] was 0.004533 and the “Rate, single replicate” value [14] was 0.005567 and 0.005953 and 0.005104. The avg rate [14] was 0.005541, the “Rate, single replicate” value [15] was 0.006433 and 0.00613 and 0.007161 and the avg rate [15] was 0.006575. The “mode of inhibition (NADPH varied)” value was “uncompetitive inhibition” and the “mode of inhibition (NADPH varied)” value (listed as 7 (9VP108)) was “uncompetitive behavior”.
With Cc1oc(-c2ccccc2)nc1CN[C@@H]1C[C@@H]2C[C@H]([C@H]1C)C2(C)C [Compound 3] the Vmax (70 µM inhibitor, 6 hr preincubation) was 0.0086 ± 0.0003 ΔA412/min, the avg rate (NADPH 3 µM, 35 µM compound) was 0.003992 and the avg rate (NADPH 3 µM, 50 µM compound) was 0.003778. It also gave an avg rate (NADPH 3 µM, 70 µM compound) of 0.003468, an avg rate (NADPH 10 µM, 35 µM compound) of 0.007014 and an avg rate (NADPH 10 µM, 50 µM compound) of 0.006219. For the same compound, the avg rate (NADPH 10 µM, 70 µM compound) was 0.005582, the avg rate (NADPH 30 µM, 35 µM compound) was 0.009551 and the avg rate (NADPH 30 µM, 50 µM compound) was 0.008305. It also gave an avg rate (NADPH 30 µM, 70 µM compound) of 0.007122, an avg rate (NADPH 100 µM, 35 µM compound) of 0.01022 and an avg rate (NADPH 100 µM, 50 µM compound) of 0.009229. The avg rate (NADPH 100 µM, 70 µM compound) was 0.00846, the “mode of inhibition (NADPH varied)” value was “uncompetitive inhibition” and the “mode of inhibition (NADPH varied)” value (listed as 3 (8VP83)) was “uncompetitive behavior”.
In the case of C[C@@H]1[C@H]2C[C@@H](C[C@H]1NCc1nc3ccccc3n1C1CCCCCC1)C2(C)C [Compound 8], the Vmax (0.6 µM fast inhibitor) was 0.05 ± 0.0017 ΔA412/min, the Vmax (10 µM fast inhibitor) was 0.0091 ± 0.0007 ΔA412/min and the Vmax (30 µM fast inhibitor) was 0.0067 ± 7E-5 ΔA412/min. The “Rate, single replicate” value [16] was 0.02362 and 0.02203 and 0.02232, the avg rate [16] was 0.02266 and the “Rate, single replicate” value [17] was 0.03949 and 0.03661 and 0.03778. For the same compound, the avg rate [17] was 0.03796, the “Rate, single replicate” value [18] was 0.04159 and 0.0438 and 0.04407 and the avg rate [18] was 0.04315. For the same compound, the “Rate, single replicate” value [19] was 0.04835 and 0.04882 and 0.0495, the avg rate [19] was 0.04889 and the “Rate, single replicate” value [7] was 0.007669 and 0.006838 and 0.009131. For the same compound, the avg rate [7] was 0.007879, the “Rate, single replicate” value [8] was 0.005991 and 0.006991 and 0.01256 and the avg rate [8] was 0.008514. The “Rate, single replicate” value [9] was 0.006895 and 0.007479 and 0.009519, the avg rate [9] was 0.007964 and the “Rate, single replicate” value [10] was 0.01018 and 0.009394 and 0.01058. The avg rate [10] was 0.01005, the “Rate, single replicate” value [12] was 0.00609 and 0.005955 and 0.006026 and the avg rate [12] was 0.006024. The “Rate, single replicate” value [13] was 0.006205 and 0.005206 and 0.007748, the avg rate [13] was 0.006386 and the “Rate, single replicate” value [14] was 0.006944 and 0.006279 and 0.006539. The avg rate [14] was 0.006587, the “Rate, single replicate” value [15] was 0.005974 and 0.006732 and 0.007751 and the avg rate [15] was 0.006819. The “mode of inhibition (NADPH varied)” value was “uncompetitive inhibition” and the “mode of inhibition (NADPH varied)” value (listed as 8 (9VP173)) was “uncompetitive behavior”.
For CC1C(NCc2cn(C3OCC(O)C(O)C3O)c3ccccc23)CC2CC1C2(C)C (stereo not shown) [Compound 9], the Vmax (10 µM fast inhibitor) was 0.012 ± 0.00012 ΔA412/min, the Vmax (30 µM fast inhibitor) was 0.0056 ± 0.00043 ΔA412/min and the Vmax (60 µM fast inhibitor) was 0.0033 ± 0.00024 ΔA412/min. The “Rate, single replicate” value [20] was 0.004595 and 0.004128 and 0.004463, the avg rate [20] was 0.004395 and the “Rate, single replicate” value [21] was 0.005356 and 0.005454 and 0.005186. The avg rate [21] was 0.005332, the “Rate, single replicate” value [22] was 0.00852 and 0.006935 and the avg rate [22] was 0.007727. The “Rate, single replicate” value [23] was 0.008379 and 0.007686 and 0.007654, the avg rate [23] was 0.007906 and the “Rate, single replicate” value [24] was 0.002898 and 0.002979 and 0.003645. The avg rate [24] was 0.003174, the “Rate, single replicate” value [2] was 0.003704 and 0.003359 and 0.003645 and the avg rate [2] was 0.003569. For the same compound, the “Rate, single replicate” value [3] was 0.005584, the avg rate [3] was 0.02094 and the “Rate, single replicate” value [4] was 0.004192 and 0.005 and 0.004489. For the same compound, the avg rate [4] was 0.00456, the “Rate, single replicate” value (inhibitor 10 µM, NADPH 5 (unit not given)) was 0.00023 and 0.001097 and 0.0005855 and the “Rate, single replicate” value [7] was 0.001061 and 0.0007127 and 0.0008019. For the same compound, the “Rate, single replicate” value [8] was 0.0004565 and 0.000593, the “Rate, single replicate” value [9] was 0.0001918 and 0.000912 and 1.594e-5 and the “mode of inhibition (NADPH varied)” value was “noncompetitive inhibition”.
